ChEMBL document CHEMBL4715834, “Design, synthesis and bio-evaluation of novel 2-aryl-4-(3,4,5-trimethoxy-benzoyl)-5-substituted-1,2,3-triazoles as the tubulin polymerization inhibitors” (Eur J Med Chem, 2020)
Values after ≈ are worked out from the molar mass of the structure shown. Active and inactive are the calls of the source. The rule behind the calls is not given here.

What was measured:
HeLa = test: Antiproliferative activity against human HeLa cells assessed as inhibition of cell growth measured after 72 hrs by MTT assay; type: functional, cell-based
A549 = test: Antiproliferative activity against human A549 cells assessed as inhibition of cell growth measured after 72 hrs by MTT assay; type: functional, cell-based; settings: A549, 72 h
SGC-7901 [1] = test: Antiproliferative activity against human SGC-7901 cells assessed as inhibition of cell growth measured after 72 hrs by MTT assay; type: functional, cell-based; settings: SGC-7901, 72 h
[2] = Solubility of compound in water at pH 7.4 by UV-HPLC method; type: physicochemical
[3] = (§1) Inhibition of porcine tubulin polymerization measured for 60 mins by fluorescence assay; design: species or system Sus scrofa
Sus scrofa = species on record: Sus scrofa; test: as §1
SGC-7901 [4] = test: Cell cycle arrest in human SGC-7901 cells assessed as increase in sub-G1 cell population at 0.084 uM after 72 hrs by propidium iodide staining based flow cytometry; type: functional
SGC-7901 [5] = test: Cell cycle arrest in human SGC-7901 cells assessed as decrease in G1 cell population at 0.084 uM by propidium iodide staining based flow cytometry; type: functional; settings: time 12-72 hrs, TDE = time-dependent effect
SGC-7901 [6] = test: Cell cycle arrest in human SGC-7901 cells assessed as increase in G2/M cell population at 0.084 uM by propidium iodide staining based flow cytometry; type: functional; settings: time 12-72 hrs, TDE = time-dependent effect
SGC-7901 [7] = test: Induction of microtubule disruption in human SGC-7901 cells assessed as shrinkage of microtubule at 0.084 uM measured after 24 hrs by DAPI staining based immunofluorescence assay; type: cell-based
SGC-7901 [8] = test: Cell cycle arrest in human SGC-7901 cells assessed as accumulation at G2/M cell population at 0.084 uM measured after 12 hrs by propidium iodide staining based flow cytometry (reference value: 14.5%); type: functional
SGC-7901 [9] = test: Induction of microtubule disruption in human SGC-7901 cells assessed as appearance of disorganised microtubule at 0.084 uM measured after 24 hrs by DAPI staining based immunofluorescence assay; type: cell-based
SGC-7901 [10] = test: Induction of microtubule disruption in human SGC-7901 cells assessed as change in shape of nucleus at 0.084 uM measured after 24 hrs by DAPI staining based immunofluorescence assay; type: cell-based
SGC-7901 [11] = test: Cell cycle arrest in human SGC-7901 cells assessed as increase in sub-G1 cell population at 0.023 uM after 72 hrs by propidium iodide staining based flow cytometry; type: functional
SGC-7901 [12] = test: Cell cycle arrest in human SGC-7901 cells assessed as decrease in G1 cell population at 0.023 uM by propidium iodide staining based flow cytometry; type: functional; settings: time 12-72 hrs, TDE = time-dependent effect
SGC-7901 [13] = test: Cell cycle arrest in human SGC-7901 cells assessed as increase in G2/M cell population at 0.023 uM by propidium iodide staining based flow cytometry; type: functional; settings: time 12-72 hrs, TDE = time-dependent effect

SMILES | IC50 (HeLa) [nM] | IC50 (A549) [nM] | IC50 (SGC-7901 [1]) [nM] | other results
COc1cc(C(=O)c2nn(-c3ccccc3C)nc2N2CCN(C(C)=O)CC2)cc(OC)c1OC | 2690 | 8350 | 2380 | 
COc1cc(C(=O)c2nn(-c3cccc(F)c3)nc2N2CCN(C(C)=O)CC2)cc(OC)c1OC | 6200 | > 30000 | 1690 | 
COc1cc(C(=O)c2nn(-c3ccc(F)cc3)nc2N2CCN(C(C)=O)CC2)cc(OC)c1OC | 3480 | > 30000 | 344 | 
COc1cc(C(=O)c2nn(-c3ccccc3F)nc2N2CCN(C(C)=O)CC2)cc(OC)c1OC | 513 | 4650 | 171 | 
COc1ccc(-n2nc(C(=O)c3cc(OC)c(OC)c(OC)c3)c(N3CCN(C(C)=O)CC3)n2)cc1N | 1360 | 648 | 550 | 
COc1cc(C(=O)c2nn(-c3ccc(Br)cc3)nc2N2CCN(C(C)=O)CC2)cc(OC)c1OC | > 30000 | 9060 | 861 | 
COc1ccc(/C=C\c2cc(OC)c(OC)c(OC)c2)cc1O [COMBRETASTATIN A4] |  |  |  | solubility [2]: 0.1 µg/mL (≈ 0.316 µM)
COc1cc(C(=O)c2nn(-c3ccc(C)c(C)c3)nc2N2CCN(C(C)=O)CC2)cc(OC)c1OC | 3920 | 2610 | 4830 | 
COc1cc(C(=O)c2nn(-c3ccccc3)nc2N2CCN(C)CC2)cc(OC)c1OC | 135 | 622 | 6580 | 
COc1cc(C(=O)c2nn(-c3ccc(Cl)cc3)nc2N2CCN(C(C)=O)CC2)cc(OC)c1OC | 1080 | 628 | 406 | 
COc1cc(C(=O)c2nn(-c3ccccc3)nc2N2CCN(C(C)C)CC2)cc(OC)c1OC | 6420 | 7300 | 2680 | 
COc1cc(C(=O)c2nn(-c3cc(C)ccc3C)nc2N2CCN(C(C)=O)CC2)cc(OC)c1OC | > 30000 | > 30000 | > 30000 | 
COc1cc(C(=O)c2cnn(-c3ccccc3)n2)cc(OC)c1OC | 11400 | 7100 | 870 | solubility [2]: < 0.5 µg/mL
COc1cc(C(=O)c2nn(-c3cccc(C)c3)nc2N2CCN(C(C)=O)CC2)cc(OC)c1OC | > 30000 | > 30000 | > 30000 | 
COc1cc(C(=O)c2nn(-c3ccc([N+](=O)[O-])cc3)nc2N2CCN(C(C)=O)CC2)cc(OC)c1OC | 212 | 684 | 417 | 
COc1ccc(-n2nc(C(=O)c3cc(OC)c(OC)c(OC)c3)c(N3CCN(C(C)=O)CC3)n2)cc1 | 208 | 1100 | 1150 | 
COc1ccc(-n2nc(C(=O)c3cc(OC)c(OC)c(OC)c3)c(N3CCN(C(C)=O)CC3)n2)cc1[N+](=O)[O-] | > 30000 | > 30000 | > 30000 | 
COc1cc(C(=O)c2nn(-c3ccccc3)nc2N2CCN(C(C)=O)CC2)cc(OC)c1OC | 221 | 133 | 84 | IC50 [3]: 28300 nM; inhibition (Sus scrofa): Dose-dependent effect; Activity (SGC-7901 [4]): Active; Activity (SGC-7901 [5]): Tde; Activity (SGC-7901 [6]): Tde; Activity (SGC-7901 [7]): Active; Activity (SGC-7901 [8]): 53.9%; Activity (SGC-7901 [9]): Active; solubility [2]: 2.7 µg/mL (≈ 5.8 µM); Activity (SGC-7901 [10]): Active
COc1cc(C(=O)c2nn(-c3ccccc3)nc2N2CCN(C(=O)OC(C)(C)C)CC2)cc(OC)c1OC | > 30000 | > 30000 | 11300 | 
COc1cc(C(=O)c2nn(-c3ccccc3)nc2N2CCOCC2)cc(OC)c1OC | 891 | 488 | 5860 | 
COc1cc(C(=O)c2nn(-c3ccc(C)cc3)nc2N2CCN(C(C)=O)CC2)cc(OC)c1OC | 298 | 764 | 426 | 
COc1cc(C(=O)c2nn(-c3ccccc3)nc2N2CCCCC2)cc(OC)c1OC | 3620 | 6450 | 3720 | 
COc1cc(C(=O)c2nn(-c3ccccc3)nc2N2CCNCC2)cc(OC)c1OC | 342 | 4310 | 1240 | solubility [2]: 2.2 µg/mL (≈ 5.2 µM)
COc1cc(C(=O)c2csc(-c3ccccc3)n2)cc(OC)c1OC | 37 | 34 |  | Activity (SGC-7901 [11]): Active; Activity (SGC-7901 [12]): Tde; Activity (SGC-7901 [13]): Tde; solubility [2]: < 0.5 µg/mL
